pIC50: −log10 of the molar value. Calls of active or inactive are those of the source.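 Rule for the calls: active = maximal percent inhibition of the deubiquitinase OTUD3 of at least 30% across the tested doses; inactive = the rest.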
Target: OTU domain-containing protein 3 (Homo sapiens) (UniProt Q5T2D3)
Assay: Validation of screening hits, potency titration, in vitro enzymatic, OTU domain-containing protein 3 DUB inhibitors (AID 1645868)
Settings: purified OTUD3, ubiquitin-rhodamine cleavage fluorescence, 2 h

OTU domain-containing protein 3 (Homo sapiens), sequence (Q5T2D3 whole entry, looked up, the tested form may be a part): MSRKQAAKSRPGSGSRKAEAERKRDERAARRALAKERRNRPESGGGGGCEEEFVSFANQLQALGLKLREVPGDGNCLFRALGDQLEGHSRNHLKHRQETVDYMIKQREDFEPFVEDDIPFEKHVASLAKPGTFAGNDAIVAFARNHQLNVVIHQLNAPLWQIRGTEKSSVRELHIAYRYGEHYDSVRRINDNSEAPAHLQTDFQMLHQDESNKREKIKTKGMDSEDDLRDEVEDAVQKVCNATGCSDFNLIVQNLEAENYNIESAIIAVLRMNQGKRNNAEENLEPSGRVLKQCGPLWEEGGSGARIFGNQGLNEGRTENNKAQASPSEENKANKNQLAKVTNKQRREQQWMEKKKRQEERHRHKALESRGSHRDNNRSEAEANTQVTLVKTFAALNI

Compound	IC50	pIC50
Nc1c(C(=O)c2cccs2)oc2nc(-c3ccccc3)cc(-c3ccco3)c12	> 50 µM (inactive)	
CCOc1ccc(NC(=O)Cn2c(=O)n(CCC(=O)NCc3ccco3)c(=O)c3ccccc32)cc1		4.94
O=C(CCn1c(=O)c2sccc2n(CC(=O)OCc2ccccc2)c1=O)NCc1ccc2c(c1)OCO2		4.68
N#Cc1ccc(NC(=O)Nc2cccn(Cc3ccccc3Br)c2=O)cc1	> 50 µM (inactive)	
CCc1nnc(NC(=O)c2nnn(-c3ccccc3Cl)c2C)s1	> 50 µM (inactive)	
O=C(Nc1cccc(Br)c1)c1cc(-c2cccnc2)n[nH]1		4.98
COc1ccc2nc(NC(=O)C(CC(C)C)NS(=O)(=O)c3ccc4c(c3)CCN4C(C)=O)sc2c1 (stereo not drawn)		4.58
COC(=O)c1cc(C#N)c(NCc2ccccc2)nc1C	> 50 µM (inactive)	
Cc1ccccc1NC(=O)CNc1nc(Nc2ccccc2)nc(Nc2ccccc2)n1		4.68
Cc1cccc(C)c1NC(=O)Cn1c(=O)n(CCCCC(=O)NCc2ccc3c(c2)OCO3)c(=O)c2ccccc21		5.55
CC(CCc1ccccc1)NC(=O)C(=O)c1cn(CC(=O)N2CCOCC2)c2ccccc12 (stereo not drawn)	> 50 µM (inactive)	
Cc1noc(-c2cc(=O)n(CC(=O)NCc3ccccc3F)c3ccccc23)n1		4.60
COCC(=O)Nc1cc(F)c2nc(N3CCOCC3)ccc2c1	> 50 µM (inactive)	
O=C(Nc1ccc(Cl)cc1F)c1cc(-c2ccccn2)n[nH]1	> 50 µM (inactive)	
COc1cc(C)cc2c1C(=O)c1c(cc(O)c(Cl)c1O)C2=O		5.68
CC(c1ccccc1)n1c(-c2ccc(F)cc2)nc2c(c(=O)c3ccccc3n2C)c1=O (stereo not drawn)		5.33
O=C(Nc1ccc2sccc2c1)c1ccc(F)cc1	> 50 µM (inactive)	
Cc1ccc(Cn2nnc(-c3ccccc3Cl)n2)cc1	> 50 µM (inactive)	
CSc1cccc(NC(=O)CNC(=O)c2cc3ccccc3o2)c1	> 50 µM (inactive)	
Cc1ccccc1NC(=O)C(C)n1c(=O)cc(-c2ccccc2)c2c(C)nn(C)c21 (stereo not drawn)		4.42
COc1ccc(C(=O)CSc2nnc(-c3cccnc3)n2-c2ccccc2)cc1	> 50 µM (inactive)	
COc1ccc(/C=C/C(=O)Nc2cccc(S(=O)(=O)Nc3ccccc3Cl)c2)c(OC)c1		4.59
CCCCCCCc1cc(O)cc(O)c1	> 50 µM (inactive)	
Cn1cc(CCNC(=O)c2cc3ccccc3[nH]2)c2cccnc21	> 50 µM (inactive)	

Compound	IC50	pIC50
C=C(NC(=O)C(=C)NC(=O)c1csc(C2=N[C@@H]3c4csc(n4)[C@H]4NC(=O)c5csc(n5)[C@H]([C@](C)(O)[C@@H](C)O)NC(=O)C5CSC(=N5)/C(=C/C)NC(=O)C([C@@H](C)O)NC(=O)c5csc(n5)[C@]3(CC2)NC(=O)[C@H](C)NC(=O)C(=C)NC(=O)[C@H](C)NC(=O)C([C@@H](C)CC)NC2C=Cc3c(C(C)O)cc(nc3[C@H]2O)C(=O)OC4C)n1)C(N)=O (stereo partly drawn)	> 50 µM (inactive)	
O=C(c1ccc(COc2cccc3ccccc23)o1)N1CCC(Cc2ccccc2)CC1	> 50 µM (inactive)	
N#Cc1c(N)nc2c(c1N)C(c1ccccc1)CO2 (stereo not drawn)	> 50 µM (inactive)	
COc1ccccc1C(=O)N1CCC(S(=O)(=O)c2ccc(-c3ccco3)cc2)CC1	> 50 µM (inactive)	
COc1ccccc1CNC(=O)C1CCCN(c2nc3ccsc3c(=O)s2)C1 (stereo not drawn)	> 50 µM (inactive)	
CC1(C)CC2CC(C)(CN2Cc2c(O)ccc3ccccc23)C1 (stereo not drawn)	> 50 µM (inactive)	
COc1cccc(C(=O)Oc2ccc3c(=O)c(-c4ccc(OC)c(OC)c4)coc3c2)c1	> 50 µM (inactive)	
Cc1ccc(C(=O)Nc2ccc3c(c2)C(=O)N(C)c2ccccc2O3)cc1C	> 50 µM (inactive)	
O=C(CCCc1c[nH]c2ccccc12)Nc1ccc2c(c1)OCCO2	> 50 µM (inactive)	
Cc1ccccc1NC(=O)c1cc(S(=O)(=O)N2CCCCCC2)ccc1Cl		4.53
CC1=CC(=O)C(C2=C(O)C(=O)C(C)=CC2=O)=C(O)C1=O		4.59
Cc1ccc(-c2nc(Cn3nnc(-c4nc(-c5ccccn5)no4)c3C)c(C)o2)cc1	> 50 µM (inactive)	
COc1ccc(C2C(C(=O)C(C)(C)C)N3c4ccccc4C=CC3C23C(=O)c2ccccc2C3=O)c(OC)c1 (stereo not drawn)	> 50 µM (inactive)	
CCOc1ccc(-c2cc3nc(C4CCN(C(=O)OC(C)(C)C)CC4)c(C(=O)Nc4cc(F)ccc4F)cn3n2)cc1	> 50 µM (inactive)	
O=C(Cn1nnc(-c2ccc(F)cc2)n1)NCCc1ccccc1	> 50 µM (inactive)	
O=C(CN1CCCc2ccccc21)Nc1ccc(N2CCOCC2)cc1	> 50 µM (inactive)	
O=C(Nc1ncc2c(n1)-c1ccccc1CC2)C1CC1		4.44
CC(C)N1CC2CN(C(=O)c3ccccc3)CCN2Cc2ccccc21 (stereo not drawn)	> 50 µM (inactive)	
COc1ccc(-c2nnc(SCc3ccccc3C#N)o2)c(OC)c1	> 50 µM (inactive)	
O=C1CC(c2ccco2)Cc2[nH]c(=O)c(-c3nc(-c4ccc(Cl)cc4)cs3)cc21 (stereo not drawn)	> 50 µM (inactive)	
Cc1cccc(COc2ccc(C3SCC(=O)Nc4n[nH]c(C)c43)cc2)c1 (stereo not drawn)		4.81
CN1CCC(N(C)S(=O)(=O)c2ccc(NC(=O)c3cccc(OCc4ccccc4)c3)cc2)CC1	> 50 µM (inactive)	
COc1cccc(/C=C/C(=O)Nc2ccc(C)c(Cl)c2)c1		4.34
CC1=C(Cn2c3cccc(=O)c-3nc3ccccc32)CCC(C)(C)C1		5.43

Compound	IC50	pIC50
CS(=O)(=O)NC1CCCN(C(=O)Nc2cccc3ccccc23)C1 (stereo not drawn)	> 50 µM (inactive)	
O=S1(=O)NC(=NCCc2ccc(Cl)cc2Cl)c2ccccc21	> 50 µM (inactive)	
CCOc1ccc2[nH]c3c(=O)n(CCc4ccc(OC)cc4)cnc3c2c1		4.54
CSc1nc(Cc2ccc(Cl)cc2)nc2ccccc12	> 50 µM (inactive)	
CCCCNC(=O)C1Sc2nnc(-c3ccccc3)n2NC1c1ccccc1 (stereo not drawn)		4.75
O=C1NC(=O)/C(=C/c2ccc(OC(=O)c3ccc(Cl)cc3Cl)cc2)N1		4.96
CNc1nc2c(c(=O)n1Cc1ccccc1)CN(C(=O)c1ccc(CN)cc1)CC2	> 50 µM (inactive)	
Cc1ccc2nc(-c3cccc(-c4nc5ccc(C)cc5[nH]4)n3)[nH]c2c1	> 50 µM (inactive)	
COc1ccc(CNC(=O)CCc2nnc3n(Cc4ccccc4Cl)c(=O)c4ccccc4n23)cc1		4.88
O=C(NCc1ccccc1Cl)c1ccc2cn[nH]c2c1	> 50 µM (inactive)	
Cc1cn[nH]c1C1COCCN1C(=O)c1ccc2ncccc2c1 (stereo not drawn)	> 50 µM (inactive)	
O=C1CC(O)C(C2=CC(=O)c3c(O)cccc3C2=O)O1 (stereo not drawn)		5.61
CC1CCCCN1c1nc(F)c2c(c1F)S(=O)(=O)CCN2Cc1ccccc1 (stereo not drawn)	> 50 µM (inactive)	
CCOc1ccc2[nH]c(=O)c(CN(C(=O)c3cccs3)C3CCCC3)cc2c1		4.53
O=C(Nc1cc(Cl)cc(Cl)c1)c1csnn1		4.48
COc1ccc(-c2nc(-c3nnn(Cc4ccc(F)cc4)c3C)no2)c(OC)c1		4.69
COCCNC(=O)c1ccn(-c2ccc3ccc(-c4ccncc4)cn23)n1	> 50 µM (inactive)	
COc1ccccc1CNC(=O)c1ccc(CSc2nc3ccncc3n2Cc2ccccc2)cc1	> 50 µM (inactive)	
COCCCN1CCS(=O)(=O)c2c(Cl)c(F)nc(Oc3ccc(C#N)cc3)c21	> 50 µM (inactive)	
COc1ccc(NC(=O)C2CCN(c3cncnc3N(C)C)CC2)cc1OC	> 50 µM (inactive)	
Cc1ccc(-n2c(-c3ccccc3)cn3c4c(=O)[nH]c(=O)n(C)c4nc23)cc1C		5.70
CC(=O)c1ccc(NC(=O)CSc2nc(-c3ccccc3)nc3c2COC(C)(C)C3)cc1	> 50 µM (inactive)	
O=C(c1cc(Cl)ccc1Cl)N1CCN(c2ccc3nnc(-c4ccco4)n3n2)CC1	> 50 µM (inactive)	
O=C(NCc1ccc(CN2CCCC2)cc1)c1cc2ccccc2[nH]c1=O	> 50 µM (inactive)	

Compound	IC50	pIC50
Cc1cc(O)c2c3c(c(O)c4c(c13)O[C@@H](C)C4(C)C)C(=O)C2=O		4.50
O=C(CCCn1c(=O)[nH]c2cc(Cl)ccc2c1=O)N1CCc2ccccc2C1		4.54
COc1ccc(NC(=O)Cn2cc(C(=O)c3ccc(C)cc3)c(=O)c3ccccc32)cc1		4.94
CC[C@H](C)C[C@H]1CC[C@](O)([C@](C)(O)C(=O)N[C@@H]2C(=O)N3NCCC[C@@H]3C(=O)N(O)[C@@H](C)C(=O)NCC(=O)N3NCCC[C@H]3C(=O)N(O)[C@H](C)C(=O)O[C@H]2C(C)C)O[C@@H]1C		5.66
Fc1cccc(Cn2cc(-c3noc(-c4cccnc4)n3)nn2)c1	> 50 µM (inactive)	
CCc1cccc2c(C(=O)COc3ccc(C#N)cc3)c[nH]c12		4.32
Cn1c(=O)c2c(ncn2CC(=O)NC2CCCc3ccccc32)n(C)c1=O (stereo not drawn)	> 50 µM (inactive)	
O=C1/C(=C/c2cn(-c3ccccc3)nc2-c2ccc3c(c2)OCCO3)Cc2ccccc21	> 50 µM (inactive)	
O=C(Nc1ccccc1Br)c1ccn(COc2ccccc2F)n1		4.33
c1ccc(-c2noc(-c3cc(-c4ccncc4)nc4ccccc34)n2)nc1	> 50 µM (inactive)	
O=C(Nc1cccc(C(F)(F)F)c1)c1cc2c(s1)-c1ccccc1OC2		4.82
CC(=O)C1=C(O)[C@]2(O)C(=O)c3c(c(C)c4ccc(C)c(O)c4c3O)C[C@H]2[C@@H](N)C1=O		5.67
COc1ccc(-c2cc3nc(C)cc(Nc4ccc(F)cc4)n3n2)cc1OC	> 50 µM (inactive)	
COc1ccc(C(=O)Nc2ccc(S(=O)(=O)N3CCCCC3)cc2)cc1	> 50 µM (inactive)	
Cc1ccc(-c2csc(-n3ncc(C(=O)N4CCN(C(=O)Nc5cccc6ccccc56)C(C)C4)c3C(C)C)n2)cc1 (stereo not drawn)	> 50 µM (inactive)	
CCn1cc(NC(=O)CN2CCC3(CC=CCOC3)CC2)c(C)n1	> 50 µM (inactive)	
O=S1(=O)CCN(CC2CCCO2)c2c(Oc3ccccc3)nc(F)c(Cl)c21 (stereo not drawn)	> 50 µM (inactive)	
CC1CCN(C(=O)c2cn(-c3cc(N4CCC(C)CC4)ncn3)cn2)CC1	> 50 µM (inactive)	
Cc1ccccc1C(=O)OCCN1C(=O)c2cccc3c(N4CCOCC4)ccc(c23)C1=O	> 50 µM (inactive)	
CC(=O)Nc1ccc(O)c(-c2nc3cc(C)ccc3o2)c1	> 50 µM (inactive)	
COc1cc(C)c(NC(=O)c2cc(-c3ccccc3)c(N3CCOCC3)s2)cc1OC	> 50 µM (inactive)	

— PubChem BioAssay AID1645868 (Buhrlage Lab, Dana-Farber Cancer Institute and Novartis …, 2021)
